Experimental data published in article PMC8821551, “Binding of cationic analogues of α-MSH to lipopolysaccharide and disruption of the cytoplasmic membranes caused bactericidal action against Escherichia coli” (Scientific Reports, 2022).

How the values were obtained:
[1] = system: stationary phase E. coli cells; assay: Killing assay, stationary phase cells; assay type: cell-based, Escherichia coli; conditions: 10^5 CFU/mL, HEPES-glucose buffer, 37 °C, peptide 10 µM, 1 h, mean ± SE, three independent days, SEM
Protocol: (§1) For this study, a well-characterized strain of E. coli (ATCC 25922) was used. The strain was stored at − 80 °C in 15% (v/v) glycerol until sub-cultured onto LB agar plates for use.
(§2) The antibacterial activity of α-MSH and its cationic analogues was determined against both logarithmic (2–3 h) and stationary (16–18 h) phase of E. coli cells in LB medium. The bacterial suspension was pelleted, washed, and diluted in HEPES-glucose buffer (5 mM HEPES, 20 mM glucose, pH 7.4) to adjust the cell density by measuring the OD = 0.5 (10^8 CFU/mL) at 600 nm using a spectrophotometer. This suspension was used to obtain the desired inoculum sizes (10^5 CFU/mL, 10^6 CFU/mL, and 10^7 CFU/mL). The inoculums were exposed to various concentrations of peptides (1 µM, 2 µM, 5 µM, and 10 µM) and incubated at 37 °C. Untreated E. coli cells were also included as a control. At selected time points (0 min, 15 min, 30 min, 60 min, and 120 min), aliquots were taken out, and survival of E. coli cells was determined by quantitative plating on LB agar after appropriate dilution in the same buffer. The plates were incubated overnight at 37 °C, followed by colony counting. Each experiment was performed at least three times on three independent days.

E. coli outer membrane = assay: Outer membrane permeabilization assay (NPN uptake); assay type: cell-based, Escherichia coli; conditions: relative to 10 µM polymyxin B = 100%; for %NPN uptake: 10^8 CFU/mL mid-log cells, 10 μM NPN
Protocol: The outer membrane permeabilization assay was done as described in the literature with slight modifications. Briefly, bacterial cells were grown to mid-log phase in LB medium, washed and diluted to 10^8 CFU/mL in HEPES-glucose buffer. Next, this bacterial suspension was treated with 10 μM NPN probe and subsequently challenged with increasing concentrations of peptides (1 µM to 20 µM). Changes in the fluorescence intensity of NPN were measured with the help of Shimadzu RF-5301 PC spectrofluorimeter (excitation at 350 nm and emission at 420 nm). Increased intensity of emission resulted from the damage to the bacterial outer membrane and was measured until no further increase in fluorescence was observed. NPN uptake was calculated using the following formula: %NPNuptake=Fobs-F0/F100-F0×100 where Fobs is the NPN fluorescence intensity after the peptide treatment, F0 is the NPN fluorescence with untreated E. coli cells, and F100 is the NPN fluorescence in the presence of 10 µM polymyxin B (a positive control).

E. coli ATCC 25922 = assay: Killing assay (killing kinetics), logarithmic phase cells; assay type: cell-based, Escherichia coli; conditions: logarithmic phase, 10^5 CFU/mL; for log reduction in cell viability: HEPES-glucose buffer pH 7.4, 37 °C, average ± SE, three independent experiments, SEM; for killing activity (decrease in cell viability), in words: low concentrations 1 µM and 2 µM, up to 2 h
Protocol: as §1, §2

dye-loaded E. coli cells = assay: Viability of DiSC3(5) dye-loaded cells by plating; assay type: cell-based, Escherichia coli; conditions: dye-loaded cells 10^6, HEPES-glucose buffer, two different days
Protocol: The membrane depolarization of E. coli cells was determined using a potentiometric fluorescent probe DiSC3(5), as described elsewhere. Briefly, mid-log phase E. coli cells were diluted to 10^6 CFU/mL in the same HEPES-glucose buffer and were incubated with DiSC3(5) and EDTA at 0.4 µM and 0.2 mM concentrations, respectively, for 1 h in the dark at 37 °C, till the maximum uptake of the probe occurred. Increasing concentrations of the studied peptides from 1 µM to 10 µM were then added to these dye-loaded cells in a quartz cuvette, and the fluorescence intensity was measured on spectrofluorimeter (Shimadzu RF-5301 PC) set as excitation at 622 nm and emission at 670 nm. The increase in fluorescence intensity accounted for the dissipation of membrane potential caused due to peptide treatment. Cells treated with 10 µM melittin were used as a positive control. Simultaneously, the dye-loaded cells were plated onto LB agar to estimate bacterial cell death.
Figure S1: Survival of dye-loaded cells (10^6) treated with various concentrations of peptides that correspond to the inner membrane depolarization. The dye-loaded E. coli cells suspended in HEPES-glucose buffer ([…]) were incubated with different concentration of α-MSH and its analogues for 2 minutes and further diluted in the same buffer and plated on LB agar plates. The plates were further incubated at 37 °C for 16 h. Next day the colonies were counted.^1 The experiment was performed on two different days and the representative values (mean ± SE) are shown in graph. (⁎, P < 0.05; ⁎⁎, P < 0.01, compared to that of control at the same concentration).

E. coli cells = assay: Membrane permeabilization assay (PI uptake, flow cytometry); assay type: cell-based, Escherichia coli; conditions: span over rising peptide concentrations; 10^6 CFU/mL mid-log cells, PI 1.3 µg/mL, 37 °C, 1 h, flow cytometry; three independent days
Protocol: Membrane permeabilization of E. coli cells was determined via propidium iodide (PI) uptake assay through flow cytometry as described previously with slight modifications. Briefly, mid-log phase E. coli cells were adjusted to 10^6 CFU/mL in the HEPES-glucose buffer. Next, cells were incubated with propidium iodide (PI) at 1.3 µg/mL concentration for 30 min in the dark. After incubation, PI-loaded cells were treated with a range of peptide concentrations, i.e., 1 µM, 2 µM, 5 µM, and 10 µM, at 37 °C for 1 h, and PI fluorescence intensity was measured through Becton Dickinson (BD) FACS verse (San Jose, CA) flow cytometer using excitation at 544 nm and emission at 620 nm.
Figure S2: Histograms of E. coli cells treated with 2 µM concentration of α-MSH and its analogues and 1 µM concentration of polymyxin B for 1 h. Towards monitoring the membrane permeabilizations of E. coli cells, propidium iodide (PI) uptake assay through flow cytometry was performed using the previously standardized method with mild modifications ^2. Briefly, mid-log phase grown E. coli cells (10^6 CFU/mL) suspended in the HEPES-glucose buffer were incubated with propidium iodide (PI) at a concentration of 1.3 µg/mL for 30 min in dark. After incubation, PI loaded cells were treated with a range of peptide concentrations; 1 µM, 2 µM, 5 µM and 10 µM at 37 °C for 1 h, and PI fluorescence intensity was measured through Becton Dickinson (BD) FACS verse (San Jose, CA) flow cytometer using excitation at 544 nm and emission at 620 nm.

LPS from E. coli O55:B5 = assay: LPS binding assay (BODIPY-TR-cadaverine displacement); set-up: species or system Escherichia coli; conditions: BC displacement, LPS 50 μg/mL, 5 µM BC, 50 mM Tris buffer pH 7.4, peptide 0.25 to 20 µM, Hill equation fit, mean Kd ± SD of two independent experiments, read-out: Kd (dissociation constant) with LPS
Protocol: The binding of α-MSH and its analogues to LPS was checked using BODIPY-TR-cadaverine (BC) as a fluorescent probe[24],[42]. BC fluorescence decreases when bound to cell-free LPS and increases when it is freely accessible in solution. LPS (50 μg/mL) from E. coli O55:B5 (Sigma-Aldrich, India) was incubated with 5 µM of BC in 50 mM Tris buffer (pH 7.4) for 4 h. Next, 800 µL of this LPS-BC mixture was added to varying concentrations (0.25 µM to 20 µM) of the peptides in a quartz cuvette, and the BC fluorescence was measured on a spectrofluorimeter (Shimadzu RF-5301 PC) with excitation at 580 nm and emission at 620 nm. Each experiment was done in duplicate independently. Increase in fluorescence intensities with increase in concentration of peptides were plotted and the dissociation constant (Kd) was calculated from each individual data set and is presented as mean value ± SD using Igor Pro 6.36 (Y = Bmax × Xˆh/(Kdˆh + Xˆh); where X: concentration of peptide (µM), Y: fluorescence intensity (a.u.), h: Hill slope)[43]. The molecular mass of LPS was taken as 20,000 Da as described elsewhere, and its concentration was calculated accordingly.
Table S1: The dissociation constant (Kd) of α-MSH and its analogues with LPS. […]

[2] = peptide 10 µM, 2 min of exposure

## CSCC[C@H](NC(=O)[C@H](CCCCN)NC(=O)[C@H](Cc1ccc(O)cc1)NC(=O)[C@H](CCCCN)NC(C)=O)C(=O)N[C@@H](CCC(=O)O)C(=O)N[C@@H](Cc1c[nH]cn1)C(=O)N[C@@H](Cc1ccccc1)C(=O)N[C@@H](CCCNC(=N)N)C(=O)N[C@@H](Cc1c[nH]c2ccccc12)C(=O)NCC(=O)N[C@@H](CCCCN)C(=O)N1CCC[C@H]1C(=O)N[C@H](C(N)=O)C(C)C [KK-MSH]
[1]
  log reduction in cell viability: 1.8 ± 0.05 log
E. coli outer membrane; peptide 1 μM, HEPES-glucose buffer, average of three independent days
  %NPN uptake: 6.8%
E. coli outer membrane; peptide 20 μM (highest concentration)
  %NPN uptake: 37.7%
E. coli ATCC 25922; peptide 5 µM, 2 h
  log reduction in cell viability: 1.7 ± 0.4 log
E. coli ATCC 25922; peptide 10 µM, 2 h
  log reduction in cell viability: 2.6 ± 0.5 log
E. coli ATCC 25922
  killing activity (decrease in cell viability), in words: very slight decrease in the cell viability
dye-loaded E. coli cells; peptide 5 µM, 2 min exposure
  log reduction in cell viability of dye-loaded cells: 0.5 log
dye-loaded E. coli cells; [2]
  log reduction in cell viability of dye-loaded cells: 1.2 log

## CSCC[C@H](NC(=O)[C@H](CO)NC(=O)[C@H](Cc1ccc(O)cc1)NC(=O)[C@H](CCCCN)NC(C)=O)C(=O)N[C@@H](CCC(=O)O)C(=O)N[C@@H](Cc1c[nH]cn1)C(=O)N[C@@H](Cc1ccccc1)C(=O)N[C@@H](CCCNC(=N)N)C(=O)N[C@@H](Cc1c[nH]c2ccccc12)C(=O)NCC(=O)N[C@@H](CCCCN)C(=O)N1CCC[C@H]1C(=O)N[C@H](C(N)=O)C(C)C [K-MSH]
E. coli cells
  PI positive cells: 21.8–26.5%
[1]
  log reduction in cell viability: 1.7 ± 0.3 log
E. coli outer membrane; over peptide concentrations from 1 to 20 μM
  maximum NPN uptake: 16.2%
E. coli ATCC 25922; peptide 10 µM, 1 h
  log reduction in cell viability: 1.9 ± 0.3 log
E. coli ATCC 25922
  killing activity (decrease in cell viability), in words: very slight decrease in the cell viability
E. coli ATCC 25922; peptide 5 µM
  change of killing activity at 5 µM against lower concentrations, in words: marginal increase in activity
dye-loaded E. coli cells; peptide 5 µM, 2 min exposure
  log reduction in cell viability of dye-loaded cells: 0.7 log
dye-loaded E. coli cells; [2]
  log reduction in cell viability of dye-loaded cells: 0.6 log

## polymyxin B [reference compound]
LPS from E. coli O55:B5
  Kd: 2.4 ± 0.84 µM
